Assay results: patent publication US20070099962A1, “5,6-Dihydropyrin-2-one compounds useful as inhibitors of thrombin” (priority 2003, published 2007)

Target: T1, Human α-thrombin (Homo sapiens, UniProt P00734)
T1 construct: Human α-thrombin, Sigma Chemical Co. or Hematologic Technologies; purchased Sigma Chemical Co. or Hematologic Technologies
Assay: Test B: Determination of Thrombin Inhibition with a Chromogenic, Robotic Assay
Assay type: biochemical
Details: chromogenic substrate S-2366, 40 minutes incubation at 37° C.
Source text: The thrombin clotting time (TT) is expressed as absolute values (seconds) as well as the ratio of TT without inhibitor (TT0) to TT with inhibitor (TTi). The latter ratios (range 1-0) are plotted against the concentration of inhibitor (log transformed) and fitted to sigmoidal dose-response curves according to the equation y=a/[1+(x/IC50)^s] where: a=maximum range, i.e. 1; s=slope of the dose-response curve; and IC50=the concentration of inhibitor that doubles the clotting time. The calculations are processed on a PC using the software program GraFit Version 3, setting equation equal to: Start at 0, define end=1 (Erithacus Software, Robin Leatherbarrow, Imperial College of Science, London, UK). […]
The thrombin inhibitor potency is measured with a chromogenic substrate method, in a Plato 3300 robotic microplate processor (Rosys AG, CH-8634 Hombrechtikon, Switzerland), using 96-well, half volume microtitre plates (Costar, Cambridge, Mass., USA; Cat No 3690). Stock solutions of test substance in DMSO (72 μL), 0.1-1 mmol/L, are diluted serially 1:3 (24+48 μL) with DMSO to obtain ten different concentrations, which are analysed as samples in the assay. […] The linear absorbance increment during 40 minutes incubation at 37° C. is used for calculation of percentage inhibition for the test samples, as compared to blanks without inhibitor. […]

| IC50 [nM] | Structure (SMILES) |
| --- | --- |
| 240 | CC1=C(CC(=O)NCc2ccc(C(=N)N)cc2)C(=O)N(NS(=O)(=O)Cc2ccccc2)CC1 [2(i), N-(4-Carbamimidoylbenzyl)-2-(4-methyl-2-oxo-1-phenylmethanesulfonylamino-1,2,5,6-tetrahydropyridin-3-yl)acetamide] |
| 25.6 | CC1=C(CC(=O)NCc2ccc(C(=N)N)cc2)C(=O)N(NS(=O)(=O)c2cccc3ccccc23)CC1 [2(iii), N-(4-Carbamimidoylbenzyl)-2-[4-methyl-1-(naphthalene-1-sulfonylamino)-2-oxo-1,2,5,6-tetrahydropyridin-3-yl]acetamide] |
